The record followed here is ChEMBL document CHEMBL1201862, “PubChem BioAssay data set” (2004).

Activity calls are given as the source filed them. Where only a bound is given, the exact number is not on record here.

For one test, the target named is Keap1/Nrf2 (Homo sapiens, UniProt Q14145). Put plainly: Keap1-Nrf2 protein-protein interaction inhibitors, dose response, biochemical, fluorescence polarization, cherry-picked samples (AID 588683). (In general: Polarisation of emitted light reports the rotation of a fluorescent probe.)
Test [1] concerns the target T1, Type-1 angiotensin II receptor (Homo sapiens, UniProt P30556).
T1 sequence (P30556 whole entry): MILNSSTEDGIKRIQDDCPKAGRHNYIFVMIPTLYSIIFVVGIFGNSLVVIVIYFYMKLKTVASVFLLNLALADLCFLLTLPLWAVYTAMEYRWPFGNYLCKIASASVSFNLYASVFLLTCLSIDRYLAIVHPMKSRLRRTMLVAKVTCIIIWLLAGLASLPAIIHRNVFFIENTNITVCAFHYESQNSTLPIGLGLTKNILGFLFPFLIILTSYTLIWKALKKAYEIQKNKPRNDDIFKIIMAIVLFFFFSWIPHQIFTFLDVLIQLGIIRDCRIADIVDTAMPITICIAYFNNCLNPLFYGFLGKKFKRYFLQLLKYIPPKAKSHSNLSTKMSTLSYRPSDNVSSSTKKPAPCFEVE
In words: AT1 receptor antagonists, dose response, selectivity assay for APJ receptor antagonist project, cell-based, uHTS hits (AID 463214).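 Also: antagonist potency against angiotensin II stimulated AT1 response.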 In kind it is functional.

The nature of test [2]: inhibitors of SNCA 5'UTR-driven reporter translation, confirmation, H4 neuroglioma cells, luminescence (AID 1988). In kind it is functional, cell-based.
The nature of test [3]: cytotoxicity toward DRD oncogenic fibroblasts, dose response, cell-based, non-viral oncogenic, luminescence (AID 1934). The conditions noted are these: Homo sapiens. In kind it is functional.
Test [4] has as its system BJ. Put plainly: cytotoxicity toward BJ-TERT fibroblasts, dose response, cell-based, RAS-independent, luminescence (AID 1933). In kind it is functional. Conditions: Homo sapiens.
In the next test the target is Paired box protein Pax-8 (Homo sapiens, UniProt Q06710). Put plainly: inhibitors of PAX8-driven TPO luciferase reporter, dose response, RMG-I cells, cherry-pick (AID 687027).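 Also: luciferase reporter driven by Pax8 target thyroperoxidase promoter measured by SteadyGlo luminescence.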 In kind it is functional, cell-based. (In a reporter assay the amount or activity of a reporter protein is the signal.)
For test [5], the target named is T2, Kappa-type opioid receptor (Homo sapiens, UniProt P41145). In kind it is functional.
The subject of test [6] is BJ. Put plainly: cells. The format is functional, cell-based. Conditions: Homo sapiens.
For test [7], the target named is T3, Beta-galactosidase (Escherichia coli, UniProt Q8VNN2). The format is functional.
The target of test [8] is T4, Delta-type opioid receptor (Homo sapiens, UniProt P41143). Put plainly: HTS Image-Based Screen for Agonists of the DOR Receptor. [Related pubchem assays (depositor defined):AID1777, AID1786, AID2133]. The format is functional.
Test [9] deals with T2, Kappa-type opioid receptor. The format is functional. The source holds these as a separate data set.
For the next test, the target named is T5, Protein RecA (Mycobacterium tuberculosis, UniProt P9WHJ3).
T5 sequence (P9WHJ3 whole entry): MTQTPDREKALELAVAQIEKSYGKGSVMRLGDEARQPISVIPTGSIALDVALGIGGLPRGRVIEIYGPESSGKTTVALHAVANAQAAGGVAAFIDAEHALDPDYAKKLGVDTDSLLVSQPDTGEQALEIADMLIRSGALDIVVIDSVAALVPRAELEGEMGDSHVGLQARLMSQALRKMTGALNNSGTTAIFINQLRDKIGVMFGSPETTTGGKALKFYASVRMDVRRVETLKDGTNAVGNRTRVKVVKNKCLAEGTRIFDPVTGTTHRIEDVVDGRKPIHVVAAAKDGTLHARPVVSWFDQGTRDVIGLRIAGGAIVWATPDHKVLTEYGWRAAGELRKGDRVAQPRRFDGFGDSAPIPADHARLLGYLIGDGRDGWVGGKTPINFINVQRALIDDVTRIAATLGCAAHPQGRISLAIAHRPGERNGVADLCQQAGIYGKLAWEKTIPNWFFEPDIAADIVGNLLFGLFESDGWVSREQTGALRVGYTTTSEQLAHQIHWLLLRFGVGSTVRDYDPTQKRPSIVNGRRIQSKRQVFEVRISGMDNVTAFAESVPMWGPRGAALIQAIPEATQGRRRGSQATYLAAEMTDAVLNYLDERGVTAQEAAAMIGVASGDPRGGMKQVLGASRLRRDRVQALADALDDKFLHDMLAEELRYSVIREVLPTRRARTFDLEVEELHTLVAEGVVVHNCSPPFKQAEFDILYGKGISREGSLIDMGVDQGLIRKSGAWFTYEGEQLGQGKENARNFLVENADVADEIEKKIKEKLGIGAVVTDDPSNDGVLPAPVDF
Put plainly: Fluorescence Cell-Free Homogeneous Dose Retest to Identify Inhibitors of RecA-Intein Splicing Activity. [Related pubchem assays (depositor defined):AID2097, AID2223, AID489010, AID492950]. The format is functional.

Test [10] is described as follows: THP-1 cell cytotoxicity, dose response, cytotoxicity control for non-replicating M. tuberculosis project (AID 489025). The format is functional.
Test [11] has as its target T4, Delta-type opioid receptor. Put plainly: HTS Image-Based Screen for Antagonists of the DOR Receptor. [Related pubchem assays (depositor defined):AID1777, AID1785, AID1786, AID2133]. The format is functional.
Another test concerns the target Mu-type opioid receptor (Homo sapiens, UniProt P35372). In words: HTS Image-Based Screen for Agonists of the MOR Receptor. [Related pubchem assays (depositor defined):AID1777, AID1785, AID1786, AID2133]. The format is functional.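 Also: imaging of beta-arrestin GFP recruitment into spots after receptor activation.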
The target in test [12] is T6, Replicative DNA helicase DnaB (Mycobacterium tuberculosis, UniProt P9WMR3).
T6 sequence (P9WMR3 whole entry): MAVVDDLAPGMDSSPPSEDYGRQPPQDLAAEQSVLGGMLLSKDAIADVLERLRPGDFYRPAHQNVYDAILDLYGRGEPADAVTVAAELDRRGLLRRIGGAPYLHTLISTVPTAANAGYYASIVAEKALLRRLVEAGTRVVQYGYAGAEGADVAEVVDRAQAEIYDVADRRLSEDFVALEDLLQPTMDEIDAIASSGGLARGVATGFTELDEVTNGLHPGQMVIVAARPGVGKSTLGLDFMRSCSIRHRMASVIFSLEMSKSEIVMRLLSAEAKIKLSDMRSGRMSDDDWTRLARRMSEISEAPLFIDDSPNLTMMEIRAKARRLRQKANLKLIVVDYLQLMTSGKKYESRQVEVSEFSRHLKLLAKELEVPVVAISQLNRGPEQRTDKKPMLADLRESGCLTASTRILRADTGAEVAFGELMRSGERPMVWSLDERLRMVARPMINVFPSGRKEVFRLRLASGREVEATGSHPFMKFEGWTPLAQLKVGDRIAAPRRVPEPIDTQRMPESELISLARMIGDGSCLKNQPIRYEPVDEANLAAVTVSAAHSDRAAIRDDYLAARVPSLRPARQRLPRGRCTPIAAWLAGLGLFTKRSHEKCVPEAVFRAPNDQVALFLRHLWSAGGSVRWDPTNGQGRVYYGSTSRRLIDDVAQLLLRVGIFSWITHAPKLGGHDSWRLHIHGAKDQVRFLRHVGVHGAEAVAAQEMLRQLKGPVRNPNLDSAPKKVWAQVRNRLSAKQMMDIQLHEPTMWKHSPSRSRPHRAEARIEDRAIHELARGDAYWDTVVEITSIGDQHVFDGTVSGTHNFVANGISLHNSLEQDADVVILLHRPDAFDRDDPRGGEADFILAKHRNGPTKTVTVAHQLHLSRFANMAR
Put plainly: DnaB intein splicing inhibitors, dose response, biochemical, cell-free fluorescence (AID 449749). The format is functional.

Test [13] in a line: HepG2 cell cytotoxicity, dose response, cytotoxicity control for Shn3 inhibitor project, CellTiter-Glo, cherry-picked (AID 624134). In kind it is functional, cell-based. (In general: Cellular ATP, detected with luciferase, serves as a proxy for viable cell number.)
A short description of test [14]: inhibitors of firefly luciferase expression or activity, dose response, H4 neuroglioma cells, luminescence (AID 1990). The format is functional, cell-based.
Test [15] deals with BJ. In words: cytotoxicity toward BJ-TERT-LT-ST fibroblasts, dose response, cell-based, RAS-independent, luminescence (AID 1935).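 Also: BJ fibroblasts immortalized with TERT plus LT and ST oncogenes.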 The format is functional. Conditions: Homo sapiens.
Test [16] in a line: Shn3 3'UTR reporter inhibitors, dose response, cell-based, Clone20 osteoblasts, firefly luciferase, cherry-picked (AID 624132).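 Also: firefly luciferase luminescence from reporter carrying the Shn3 3'UTR in osteoblasts.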 The format is functional.
The next test deals with INS1. Put plainly: beta cell apoptosis inhibitors, cytokine rescue, dose response, luminescence, retest (AID 449756).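 Also: cell death triggered by IL-1 beta plus TNF-alpha plus IFN-gamma mixture; protective hits raise ATP signal compared with cytokine alone wells.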 In kind it is functional, cell-based. The conditions noted are these: Rattus norvegicus.
Another test in a line: cells. In kind it is functional.
Test [17] addresses T3, Beta-galactosidase. In words: PubChem AID 485352. The format is functional.
The nature of test [18]: cytotoxicity in HEK-293T cells, dose response, cytotoxicity control for TCR NF-kB inhibitor project, luminescence, T-cell screen hits (AID 489026).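 Also: cells exposed to compound about 14 hours before the viability readout.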 The format is functional, cell-based.
Test [19] in a line: control 3'UTR Renilla luciferase suppression, dose response, counter-screen for Shn3 inhibitor project, cell-based, Clone20-Shn3RL, cherry-picked (AID 624133). The format is functional.
Test [20] can be described thus: non-specific cell cytotoxicity, dose response, cytotoxicity control for PAX8 inhibitor project, plate reader, dry powder samples (AID 743021). The format is functional, cell-based.
Test [21] can be described thus: Luminescence Cell-Based Dose Response HTS to Identify Inhibitors of 5'UTR Stem-Loop Driven Prion Protein mRNA Translation in H4 Neuroglioblastoma Cells. [Related pubchem assays: 1827 (Project Summary), 1813 (Primary HTS)]. The format is functional.
The target of the next test is Tumor necrosis factor (Homo sapiens, UniProt P01375). Put plainly: TNFa-triggered NF-kB activation inhibitors, SAR follow-up, cell-based, revised (AID 2337). In kind it is functional.
The target of test [22] is Nucleotide-binding oligomerization domain-containing protein 1 (Homo sapiens, UniProt Q9Y239). In words: NOD1 signaling inhibitors, SAR follow-up, revised (AID 2333). The format is functional.
The subject of a further test is HEK293. Put plainly: cells. The conditions noted are these: Homo sapiens.

T2 sequence (P41145 whole entry): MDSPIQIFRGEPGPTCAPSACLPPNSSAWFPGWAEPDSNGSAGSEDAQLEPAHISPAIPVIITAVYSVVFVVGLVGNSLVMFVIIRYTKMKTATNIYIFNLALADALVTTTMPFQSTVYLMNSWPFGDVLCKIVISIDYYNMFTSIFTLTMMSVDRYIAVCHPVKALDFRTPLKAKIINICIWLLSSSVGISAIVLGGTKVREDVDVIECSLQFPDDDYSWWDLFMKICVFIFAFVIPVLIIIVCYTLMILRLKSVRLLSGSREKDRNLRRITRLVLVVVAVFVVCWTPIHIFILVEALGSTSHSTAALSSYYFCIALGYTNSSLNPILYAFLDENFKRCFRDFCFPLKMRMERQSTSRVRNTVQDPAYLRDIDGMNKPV
T4 sequence (P41143 whole entry): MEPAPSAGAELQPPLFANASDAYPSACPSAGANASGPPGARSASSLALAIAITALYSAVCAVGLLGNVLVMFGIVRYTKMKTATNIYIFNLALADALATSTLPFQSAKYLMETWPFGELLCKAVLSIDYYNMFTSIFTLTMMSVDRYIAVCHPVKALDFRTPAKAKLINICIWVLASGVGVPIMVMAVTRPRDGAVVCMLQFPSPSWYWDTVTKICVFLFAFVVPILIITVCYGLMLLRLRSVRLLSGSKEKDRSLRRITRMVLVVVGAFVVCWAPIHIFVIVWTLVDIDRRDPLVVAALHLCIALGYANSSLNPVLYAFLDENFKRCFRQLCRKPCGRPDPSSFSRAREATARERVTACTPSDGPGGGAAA
T3 sequence (Q8VNN2 whole entry): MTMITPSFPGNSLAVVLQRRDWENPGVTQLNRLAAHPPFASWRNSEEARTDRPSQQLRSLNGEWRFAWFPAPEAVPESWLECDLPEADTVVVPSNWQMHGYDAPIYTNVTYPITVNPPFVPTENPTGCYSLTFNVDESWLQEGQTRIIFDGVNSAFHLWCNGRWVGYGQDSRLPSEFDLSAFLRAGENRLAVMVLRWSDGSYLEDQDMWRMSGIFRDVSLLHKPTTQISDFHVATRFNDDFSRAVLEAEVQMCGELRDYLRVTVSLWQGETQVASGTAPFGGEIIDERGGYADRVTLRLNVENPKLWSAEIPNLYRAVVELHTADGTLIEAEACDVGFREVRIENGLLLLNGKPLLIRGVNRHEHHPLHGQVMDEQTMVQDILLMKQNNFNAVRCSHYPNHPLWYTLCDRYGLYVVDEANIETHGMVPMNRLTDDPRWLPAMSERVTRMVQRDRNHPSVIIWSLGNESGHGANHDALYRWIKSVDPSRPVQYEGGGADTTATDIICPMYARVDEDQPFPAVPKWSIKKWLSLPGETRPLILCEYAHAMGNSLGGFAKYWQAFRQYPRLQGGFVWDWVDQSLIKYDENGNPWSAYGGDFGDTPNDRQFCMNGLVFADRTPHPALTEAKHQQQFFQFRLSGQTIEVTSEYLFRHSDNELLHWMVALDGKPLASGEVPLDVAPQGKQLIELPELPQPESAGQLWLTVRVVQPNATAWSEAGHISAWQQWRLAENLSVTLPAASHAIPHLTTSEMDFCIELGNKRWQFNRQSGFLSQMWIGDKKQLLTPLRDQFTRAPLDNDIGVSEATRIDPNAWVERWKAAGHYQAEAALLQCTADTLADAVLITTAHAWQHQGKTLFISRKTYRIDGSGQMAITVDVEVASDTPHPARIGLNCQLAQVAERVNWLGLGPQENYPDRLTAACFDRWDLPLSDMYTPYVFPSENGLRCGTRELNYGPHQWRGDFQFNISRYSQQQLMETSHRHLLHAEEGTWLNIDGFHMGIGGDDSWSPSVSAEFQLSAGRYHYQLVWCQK
Chain of Nucleotide-binding oligomerization domain-containing protein 1 (Q9Y239 whole entry, the tested form may be a part): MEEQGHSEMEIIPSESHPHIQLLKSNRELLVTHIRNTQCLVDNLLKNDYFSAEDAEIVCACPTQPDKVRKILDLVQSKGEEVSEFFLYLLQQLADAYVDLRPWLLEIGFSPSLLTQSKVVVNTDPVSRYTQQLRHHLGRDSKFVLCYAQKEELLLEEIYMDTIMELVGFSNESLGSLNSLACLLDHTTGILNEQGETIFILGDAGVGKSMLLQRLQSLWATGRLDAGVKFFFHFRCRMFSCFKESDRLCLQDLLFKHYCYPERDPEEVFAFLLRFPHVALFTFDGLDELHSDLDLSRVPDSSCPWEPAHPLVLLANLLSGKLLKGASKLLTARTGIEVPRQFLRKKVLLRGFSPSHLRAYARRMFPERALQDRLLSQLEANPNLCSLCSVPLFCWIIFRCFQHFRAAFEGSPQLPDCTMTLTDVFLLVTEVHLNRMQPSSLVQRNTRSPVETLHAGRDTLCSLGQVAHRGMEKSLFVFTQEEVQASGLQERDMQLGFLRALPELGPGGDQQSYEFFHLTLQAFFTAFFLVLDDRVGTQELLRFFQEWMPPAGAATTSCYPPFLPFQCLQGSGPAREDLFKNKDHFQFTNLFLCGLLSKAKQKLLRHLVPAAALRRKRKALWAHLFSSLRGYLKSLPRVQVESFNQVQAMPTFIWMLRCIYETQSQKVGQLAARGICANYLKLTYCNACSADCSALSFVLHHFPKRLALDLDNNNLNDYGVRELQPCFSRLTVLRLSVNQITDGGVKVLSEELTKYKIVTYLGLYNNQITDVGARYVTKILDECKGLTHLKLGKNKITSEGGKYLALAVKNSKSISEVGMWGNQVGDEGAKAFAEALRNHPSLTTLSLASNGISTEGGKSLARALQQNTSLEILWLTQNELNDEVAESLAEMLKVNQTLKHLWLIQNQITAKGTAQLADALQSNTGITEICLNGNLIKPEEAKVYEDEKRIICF
Chain of Paired box protein Pax-8 (Q06710 whole entry): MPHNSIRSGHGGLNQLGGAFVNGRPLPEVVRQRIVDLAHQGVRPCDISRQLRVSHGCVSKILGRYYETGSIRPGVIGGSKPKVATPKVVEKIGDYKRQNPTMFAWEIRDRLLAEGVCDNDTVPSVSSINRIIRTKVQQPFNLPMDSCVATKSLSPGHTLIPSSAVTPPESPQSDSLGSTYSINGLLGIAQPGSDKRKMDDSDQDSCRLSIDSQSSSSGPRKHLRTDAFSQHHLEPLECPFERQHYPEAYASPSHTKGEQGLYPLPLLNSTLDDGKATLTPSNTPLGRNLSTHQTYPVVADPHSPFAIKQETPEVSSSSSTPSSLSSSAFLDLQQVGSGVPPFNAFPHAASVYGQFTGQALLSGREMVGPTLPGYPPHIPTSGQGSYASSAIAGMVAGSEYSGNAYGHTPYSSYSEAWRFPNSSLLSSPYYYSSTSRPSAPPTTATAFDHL
Chain of Keap1/Nrf2 (Q16236 whole entry): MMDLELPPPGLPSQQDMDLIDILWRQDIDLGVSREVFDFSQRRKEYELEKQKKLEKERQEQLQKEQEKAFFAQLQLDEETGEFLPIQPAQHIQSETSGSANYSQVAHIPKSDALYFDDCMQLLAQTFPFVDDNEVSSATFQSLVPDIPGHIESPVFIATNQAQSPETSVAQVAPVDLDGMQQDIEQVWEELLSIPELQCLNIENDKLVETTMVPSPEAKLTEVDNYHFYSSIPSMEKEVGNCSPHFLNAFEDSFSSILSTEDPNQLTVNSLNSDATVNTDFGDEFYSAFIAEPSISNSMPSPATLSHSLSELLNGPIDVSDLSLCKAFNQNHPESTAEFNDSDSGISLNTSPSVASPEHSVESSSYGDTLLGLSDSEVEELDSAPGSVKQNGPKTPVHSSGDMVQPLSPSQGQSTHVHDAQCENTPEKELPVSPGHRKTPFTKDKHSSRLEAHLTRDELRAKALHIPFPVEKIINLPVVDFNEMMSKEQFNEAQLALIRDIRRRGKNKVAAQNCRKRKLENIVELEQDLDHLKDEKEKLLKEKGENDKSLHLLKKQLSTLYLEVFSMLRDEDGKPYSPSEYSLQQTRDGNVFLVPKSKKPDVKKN
Chain of Keap1/Nrf2 (Q14145 whole entry): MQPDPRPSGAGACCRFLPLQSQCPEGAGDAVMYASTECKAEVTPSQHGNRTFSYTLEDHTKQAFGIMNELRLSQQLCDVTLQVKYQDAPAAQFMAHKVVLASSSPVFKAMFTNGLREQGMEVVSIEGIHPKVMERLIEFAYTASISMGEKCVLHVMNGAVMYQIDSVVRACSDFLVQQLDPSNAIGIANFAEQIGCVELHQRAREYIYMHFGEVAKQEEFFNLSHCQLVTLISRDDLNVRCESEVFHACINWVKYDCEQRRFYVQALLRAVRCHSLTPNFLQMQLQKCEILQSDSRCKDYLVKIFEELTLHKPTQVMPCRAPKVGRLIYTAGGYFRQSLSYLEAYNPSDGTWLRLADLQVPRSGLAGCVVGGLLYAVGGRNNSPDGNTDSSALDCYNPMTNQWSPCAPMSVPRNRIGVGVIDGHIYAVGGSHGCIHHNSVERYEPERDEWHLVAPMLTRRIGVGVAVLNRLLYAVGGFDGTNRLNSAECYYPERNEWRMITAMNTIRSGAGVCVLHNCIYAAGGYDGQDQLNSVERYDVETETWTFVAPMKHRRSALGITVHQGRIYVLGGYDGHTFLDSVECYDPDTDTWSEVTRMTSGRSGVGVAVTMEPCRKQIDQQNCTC
Chain of Tumor necrosis factor (P01375 whole entry, the tested form may be a part): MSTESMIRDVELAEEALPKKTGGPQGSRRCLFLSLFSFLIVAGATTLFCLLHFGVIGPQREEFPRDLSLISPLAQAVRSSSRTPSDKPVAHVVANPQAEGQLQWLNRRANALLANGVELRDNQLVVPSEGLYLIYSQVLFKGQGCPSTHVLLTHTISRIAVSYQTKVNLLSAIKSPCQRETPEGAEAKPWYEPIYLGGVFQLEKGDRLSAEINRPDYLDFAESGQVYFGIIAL

As for `CCN1C(=O)NC(=O)/C(=C\c2cn(CC(=O)N3CCCCC3)c3ccccc23)C1=O`, at Keap1/Nrf2, the AC50 (as a rule, the midpoint of the concentration-response curve, whichever way the signal moves) is 35.9 µM (active).
Consider `CCS(=O)(=O)c1ncc(Cl)c(C(=O)Nc2ccc(S(=O)(=O)N(C)c3ccccc3)cc2)n1`, for which the half-maximal inhibitory concentration (IC50) – broadly, the concentration that inhibits the measured activity by half – in [1] is 3.56 µM (active); in [5] it was 4.2 µM; in test [9], 6.56 µM (active); in [11], 9.44 µM (active); in “cells”, > 50 µM (active); in test [18], 59.5 µM (inactive). Further, the EC50 (in general, the midpoint of the concentration-response curve) in test [2] was 5.71 µM (active); in test [3], 4.16 µM (active); in the test with BJ [4], 0.784 µM (active); with BJ [6], 6.38 µM (inconclusive); on Beta-galactosidase [7] it was > 31.5 µM (inactive); in test [8], > 32 µM (inactive). Also, the EC50 on Protein RecA is 1 µM (active); on Mu-type opioid receptor, > 32 µM (inactive); in [14] it was > 120 µM (not active); in the test on BJ [15], 5.62 µM (inconclusive); at Beta-galactosidase [17], > 40 µM (inactive); in test [21] it was 8.51 µM (active). The AC50 was 5.12 µM (active) at Paired box protein Pax-8; 1.14 µM (active) in test [12]; 10.7 µM (active) in [13]; 0.308 µM (active) in [16]; 5.7 µM (active) with INS1; 1.91 µM (active) in test [19]. Besides, in test [20], the AC50 is 21.2 µM (active). In addition, in test [10], the CC50 (as a rule, the concentration at which the toxic effect on the cells reaches its halfway point) is 10.6 µM (active).
As for `CC(=O)c1ccc(N2CCN(S(=O)(=O)c3ccc4c(c3)CC(C)N4C(C)=O)CC2)cc1` (stereo unspecified), the IC50 at Tumor necrosis factor is 6.5 µM (active); in test [22], 4.42 µM (active); in the test on HEK293 it was > 20 µM (inactive). The AC50 with INS1 was 6.79 µM (active).
